Assay [1] addresses T1, Tyrosine-protein phosphatase non-receptor type 1 (Homo sapiens, UniProt P18031).
T1 sequence (P18031 whole entry): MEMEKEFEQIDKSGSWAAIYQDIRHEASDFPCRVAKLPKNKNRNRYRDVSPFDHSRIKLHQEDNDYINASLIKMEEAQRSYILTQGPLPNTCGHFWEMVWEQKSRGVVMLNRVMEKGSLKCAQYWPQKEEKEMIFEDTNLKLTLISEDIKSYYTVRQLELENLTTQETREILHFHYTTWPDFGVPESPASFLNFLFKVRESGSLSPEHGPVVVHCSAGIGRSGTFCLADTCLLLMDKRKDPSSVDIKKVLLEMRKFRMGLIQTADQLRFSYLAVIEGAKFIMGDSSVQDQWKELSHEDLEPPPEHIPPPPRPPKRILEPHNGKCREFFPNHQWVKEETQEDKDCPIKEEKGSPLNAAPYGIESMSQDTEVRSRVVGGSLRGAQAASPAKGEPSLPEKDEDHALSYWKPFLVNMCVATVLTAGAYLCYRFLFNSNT
Description: Inhibition of human PTP1B using p-nitrophenyl phosphate as substrate preincubated for 10 mins followed by substrate addition measured every minute for 10 mins by UV-VIS spectrophotometric analysis.

For assay [2], the target named is T2, Phosphotyrosine protein phosphatase (Mycobacterium tuberculosis) (UniProt A0A045ISB3).
T2 sequence (whole entry): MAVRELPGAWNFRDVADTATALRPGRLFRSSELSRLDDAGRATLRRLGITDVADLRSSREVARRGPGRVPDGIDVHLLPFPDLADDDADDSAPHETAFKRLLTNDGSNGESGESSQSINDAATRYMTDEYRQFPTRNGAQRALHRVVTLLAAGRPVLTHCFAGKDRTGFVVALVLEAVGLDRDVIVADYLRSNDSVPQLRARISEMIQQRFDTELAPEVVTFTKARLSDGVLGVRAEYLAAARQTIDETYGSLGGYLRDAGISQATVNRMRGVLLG
Nature of the assay: Competitive inhibition of Mycobacterium tuberculosis PtpB using p-nitrophenyl phosphate as substrate up to 0.3 uM preincubated for 10 mins followed by substrate addition measured every minute for 10 mins by Michaelis-Menten plot analysis.

The target in assay [3] is T3, Phosphotyrosine protein phosphatase (Mycobacterium tuberculosis, UniProt A0A045ISB3).
T3 sequence (A0A045ISB3 whole entry): T2 sequence (whole entry)
Description: Inhibition of Mycobacterium tuberculosis PtpB using p-nitrophenyl phosphate as substrate preincubated for 10 mins followed by substrate addition measured every minute for 10 mins by Michaelis-Menten plot analysis.

The subject of assay [4] is Mycobacterium tuberculosis. Nature of the assay: Antitubercular activity against Mycobacterium tuberculosis H37Ra ATCC 25177 infected in human THP1 cells assessed as reduction in CFU at 13.2 uM after 72 hrs. It is filed as functional, organism-based.
Assay [5] deals with T2, Phosphotyrosine protein phosphatase (Mycobacterium tuberculosis). Description: Binding affinity to Mycobacterium tuberculosis PtpB assessed as fluorescence quenching at 0.1 to 3.8 uM by spectropolarimetry.
For assay [6] the target is unchanged. Nature of the assay: Non-competitive inhibition of Mycobacterium tuberculosis PtpB using p-nitrophenyl phosphate as substrate up to 0.3 uM preincubated for 10 mins followed by substrate addition measured every minute for 10 mins by Michaelis-Menten plot analysis.
Assay [7] deals with T1, Tyrosine-protein phosphatase non-receptor type 1. Description: Non-competitive inhibition of human PTP1B using p-nitrophenyl phosphate as substrate up to 7 uM preincubated for 10 mins followed by substrate addition measured every minute for 10 mins by Michaelis-Menten plot analysis.
The nature of assay [8]: Selectivity index, ratio of Ki for human PTP1B to Ki for Mycobacterium tuberculosis PtpB.
Assay [9] has as its system Mycobacterium tuberculosis. Description: Antitubercular activity against Mycobacterium tuberculosis H37Ra ATCC 25177 infected in human THP1 cells assessed as reduction in CFU at 14.4 uM after 72 hrs relative to control. It is filed as functional. The note with it: H37Ra ATCC 25177, THP-1, 72 h, read-out: GI.
Assay [10] has as its target T2, Phosphotyrosine protein phosphatase (Mycobacterium tuberculosis). Description: Binding affinity to Mycobacterium tuberculosis PtpB assessed as fluorescence quenching at 0.1 to 4.7 uM by spectropolarimetry.
Assay [11] has as its target T3, Phosphotyrosine protein phosphatase. Nature of the assay: Binding affinity to Mycobacterium tuberculosis PtpB by ITC method.
Assay [12] has as its target T2, Phosphotyrosine protein phosphatase (Mycobacterium tuberculosis). Nature of the assay: Ratio of Kd for binding affinity to Mycobacterium tuberculosis PtpB by fluorescence based assay to Kd for binding affinity to Mycobacterium tuberculosis PtpB by ITC method. For orientation: In ITC the heat of successive injections is recorded.
The target in assay [13] is T4, Tyrosine-protein phosphatase non-receptor type 1 (Homo sapiens) (UniProt P18031).
T4 sequence (whole entry): T1 sequence (P18031 whole entry)
Description: Binding affinity to human PTP1B assessed as protection against proteolytic cleavage at 400 uM preincubated for 10 mins before trypsin addition and measured after 2 hrs by mass spectrometry.

The target of assay [14] is T2, Phosphotyrosine protein phosphatase (Mycobacterium tuberculosis). Nature of the assay: Binding affinity to Mycobacterium tuberculosis PtpB assessed as binding constant by ITC method.

Data on two compounds can be found in ChEMBL document CHEMBL4251612, “Naturally occurring Diels-Alder-type adducts from Morus nigra as potent inhibitors of Mycobacterium tuberculosis protein tyrosine phosphatase B” (Eur J Med Chem, 2018).

Each structure is given as a SMILES string. Active and inactive are the calls of the source. The rule behind the calls is not given here.

For the compound `CC(C)=CCc1c(O)ccc(C(=O)[C@@H]2[C@@H](c3ccc(O)cc3O)CC(C)=C[C@H]2c2c(O)cc(O)c3c(=O)c(CC=C(C)C)c(-c4ccc(O)cc4O)oc23)c1O`, the IC50 (commonly the concentration at which inhibition is half-maximal) in [1] was 2.54 µM. Moreover, the inhibition result in [2] was “Active”. Further, the Ki (as a rule, the dissociation constant of the complex between target and ligand, obtained from inhibition or displacement) in assay [3] worked out at 200 nM. In addition, the outcome in [4] was inactive. The outcome in assay [5] was Active.

As to `CC(C)=CCc1c(-c2ccc(O)cc2O)oc2c([C@@H]3C=C(C)C[C@H](c4ccc(O)cc4O)[C@H]3C(=O)c3ccc(O)cc3O)c(O)cc(O)c2c1=O`, the half-inhibitory concentration (IC50) in assay [1] came to 4.56 µM. Moreover, the inhibition result in assay [6] was “Active”. Besides, the Ki in assay [3] came to 390 nM; in assay [7] it was 200 nM. The Ratio Ki in assay [8] came out at 26. In addition, the inhibition of growth at 14.4 µM in [9] came out at 61.3%. Besides, in assay [10], the outcome was Active. Moreover, binding in [11] was characterised by a dissociation constant (Kd) of 2900 nM. Further, in assay [12], the Ratio came out at 2. For the same compound, the outcome in assay [13] was inactive. Moreover, the Ka in assay [14] turned out to be 3.5 ×10⁵ /M.
